Reference: patent publication US12102618B2, “Use of riluzole prodrugs to treat ataxias” (Biohaven Therapeutics Ltd., priority 2017, dated 2024)

Assays:
Format in all cases: in vivo, human
[1] = tested on: subjects with spinocerebellar ataxia (SCA); assay: Same trial: Clinical Global Impression-Global Improvement (CGI-I)
Method: Clinical Global Impression-Global Improvement (CGI-I)
(§1) The study is a Phase IIb/III, multicenter, randomized, double-blind, 2-arm placebo-controlled parallel-group study designed to assess safety, tolerability, and efficacy signals in a population of patients with Spinocerebellar Ataxia (SCA). Subjects will be randomized to receive placebo (QD) or BHV-4157 (140 mg QD), stratified by diagnosis (genotype) and baseline severity (Gait Item of the SARA of ≤4 and >4). Subjects with SCA3 genotype will be limited to comprise up to approximately 10% of the total population so that this most common type of SCA is not over-represented.

[2] = tested on: subjects with spinocerebellar ataxia (SCA); assay: Same trial: Patient Global Impression of Change (PGI-C)
Text: This is a patient self-reported global index scale that may be used to rate the response of a condition to a therapy.
(§2) Study Type: Interventional Study Design: Allocation: Randomized • Intervention Model: Parallel Assignment • Masking: Quadruple (Participant, Care Provider, Investigator, Outcomes Assessor) • Primary Purpose: Treatment • Official Title: A Phase IIb/III, Randomized, Double-blind, Placebo-controlled Trial of BHV-4157 in Adult Subjects With Spinocerebellar Ataxia Primary Outcome Measures: • To measure the change in total score on the Scale for Assessment and Rating of Ataxia (SARA) [Time Frame: The change in total score from baseline to week 8.] Secondary Outcome Measures: • To assess the safety and tolerability of BHV-4157 in subjects with SCA by measuring the frequency and severity of adverse events and discontinuations of adverse events. [Time Frame: Baseline to week 8.] Measured by the frequency and severity of adverse events and discontinuations of adverse events. • To compare efficacy of BHV-4157 with placebo on patient impression of benefit via use of the PGI-C [Time Frame: Baseline to Week 8] Change in PGI-C score
as §1

[3] = tested on: patients with Spinocerebellar Ataxia (SCA); assay: BHV4157-201 open-label extension phase, interim analysis: modified SARA (axial items)
Text: This example describes a study entitled: Interim Extension Phase Analyses of Study BHV4157-201: Phase IIb/III, Randomized, Double-blind, Placebo-controlled Trial of Troriluzole (BHV-4157) in Adult Subjects with Spinocerebellar Ataxia followed by 96-Week Open-Label Extension Phase.
To date, all subjects have had the chance to complete the Week 24 visit from the long term, open-label extension phase of the trial.
BHV4157-201 is an on-going Phase IIb/III, multicenter, randomized, double-blind, 2-arm placebo-controlled parallel-group study designed to assess safety, tolerability, and efficacy in a population of patients with Spinocerebellar Ataxia (SCA). The study is comprised of two periods: an 8-week randomization period, followed by a 96-week open-label extension period. Regarding key entry criteria, subjects were male and female outpatients between the ages of 18-75 years, inclusive, with a known or suspected diagnosis of the following hereditary ataxias: SCA1, SCA2, SCA3, SCA6, SCA7, SCA8 and SCA10. All subjects completed genetic testing to confirm the diagnosis of hereditary ataxias. The primary objective of the study is to compare the efficacy of troriluzole versus placebo on ataxia symptoms in patients with SCA as measured by the total score on the Scale for the Assessment and Rating of Ataxia (SARA). Secondary objectives include assessments of functional disability, non-ataxia symptoms associated with SCA, global functioning, performance-based measures of ataxia, and neuropsychiatric and cognitive functioning.
During the 8-week Randomization Phase of the study, which has been completed, 141 subjects were randomized, in a 1:1 ratio, to receive either BHV-4157 (140 mg daily) or Placebo. Subjects completing the Randomization Phase were offered approximately 96 weeks of open-label treatment, provided the investigator believed open-label treatment offered an acceptable risk-benefit profile.

[4] = tested on: subjects with spinocerebellar ataxia (SCA); assay: Further analysis of Example 1 study: Modified SARA, 8 week change from baseline; details: for change in SARA score (difference BHV-4157 vs placebo): enriched genotypes
Text: This example describes a further analysis of the study of Example 1.

[5] = Tolerability in BHV4157-201 trial; details: patients with SCA
Text: as §2, with “Secondary Outcome Measures: • To assess the safety and tolerability of BHV-4157 in subjects with SCA by measuring the frequency and severity of adverse events and discontinuations of adverse events. [Time Frame: Baseline to week 8.]” left out, “Change in PGI-C score” left out
BHV4157-201 is an on-going Phase IIb/III, multicenter, randomized, double-blind, 2-arm placebo-controlled parallel-group study designed to assess safety, tolerability, and efficacy in a population of patients with Spinocerebellar Ataxia (SCA). […] The primary objective of the study is to compare the efficacy of troriluzole versus placebo on ataxia symptoms in patients with SCA as measured by the total score on the Scale for the Assessment and Rating of Ataxia (SARA). […]

CN(CC(=O)Nc1nc2ccc(OC(F)(F)F)cc2s1)C(=O)CNC(=O)CN [BHV-4157, troriluzole]
CGI Much Improved ([1]; Lighter at EXP sites): 14% | CGI Any Improvement ([1]; Lighter at EXP sites, n = 15): 60% (n = 15) | CGI Much Improved ([1]; Lighter sample): 27% | CGI Any Improvement ([1]; Lighter sample, n = 22): 64% (n = 22) | PGI Better and Definite . . . ([2]; Lighter at EXP sites): 19% | PGI Any Improvement ([2]; Lighter at EXP sites, n = 16): 45% (n = 16) | PGI “Better and Definite Improvement that has made a real & worthwhile difference” ([2]; Lighter sample): 17% | PGI Any Improvement ([2]; Lighter sample, n = 23): 34% (n = 23) | Mod SARA change (SD) from Randomization Baseline ([3]; All Patients, 8 weeks): −0.4 (1.50) | Mod SARA change (SD) from Randomization Baseline ([3]; All Patients, 36 weeks): −0.1 (1.30) | Mod SARA change (SD) from Randomization Baseline ([3]; Female Subgroup, 8 weeks): −0.3 (1.48) | Mod SARA change (SD) from Randomization Baseline ([3]; Female Subgroup, 24 weeks): −0.4 (1.32) | Mod SARA change (SD) from Randomization Baseline ([3]; Female Subgroup, 36 weeks): −0.1 (1.41) | Mod SARA change (SD) from Randomization Baseline ([3]; Female Subgroup, 48 weeks): −0.1 (1.50) | Mod SARA change (SD) from Randomization Baseline ([3]; Low Weight Subgroup, 8 weeks): −0.6 (1.56) | Mod SARA change (SD) from Randomization Baseline ([3]; Low Weight Subgroup, 24 weeks): −0.5 (1.44) | Mod SARA change (SD) from Randomization Baseline ([3]; Low Weight Subgroup, 36 weeks): −0.3 (1.34) | Mod SARA change (SD) from Randomization Baseline ([3]; Low Weight Subgroup, 48 weeks): −0.2 (1.41) | Mod SARA change (SD) from Randomization Baseline ([3]; Non-SCA1 & SCA2, 8 weeks): −0.3 (1.58) | Mod SARA change (SD) from Randomization Baseline ([3]; Non-SCA1 & SCA2, 24 weeks): −0.3 (1.24) | Mod SARA change (SD) from Randomization Baseline ([3]; Non-SCA1 & SCA2, 36 weeks): −0.1 (1.44) | Mod SARA change (SD) from Randomization Baseline ([3]; Non-SCA1 & SCA2, 48 weeks): −0.2 (1.44) | Mod SARA change (SD) from Randomization Baseline ([3]; SCA1 & SCA2, 8 weeks): −0.5 (1.47) | Mod SARA change (SD) from Randomization Baseline ([3]; SCA1 & SCA2, 24 weeks): −0.4 (1.45) | Mod SARA change (SD) from Randomization Baseline ([3]; SCA1 & SCA2, 36 weeks): −0.1 (1.20) | Mod SARA change (SD) from Randomization Baseline ([3]; SCA1 & SCA2, 48 weeks): 0.1 (1.44) | improvement in the axial SARA score ([3]; at 6 months): −0.1 point | Modified SARA, week 8 StdChg ([4]; All SCA, n = 63, May-18): 0.453 | Modified SARA, week 8 Δ Mean ([4]; All SCA, n = 63, May-18): −0.429 | Modified SARA, week 8 StdChg ([4]; SCA1 and SCA2, first Stable column, n = 31): 0.405 | Modified SARA, week 8 Δ Mean ([4]; SCA1 and SCA2, first column headed Stable (−1 < diff < 1), n = 31, Stable 2 in Table 16): −0.387 | Modified SARA, week 8 StdChg ([4]; SCA1 and SCA2, n = 33): 0.399 | Modified SARA, week 8 Δ Mean ([4]; SCA1 and SCA2, n = 33, May-18): −0.424 | Modified SARA, week 8 StdChg ([4]; SCA1 and SCA2, second Stable column, n = 14): 0.313 | Modified SARA, week 8 Δ Mean ([4]; SCA1 and SCA2, second column headed Stable (−1 < diff < 1), n = 14, Stable 1 in Table 16): −0.286 | change in SARA score (difference BHV-4157 vs placebo) ([4]; stable 2 group, 8 weeks): 0.24 | change in SARA score (difference BHV-4157 vs placebo) ([4]; stable group 1, 8 weeks): 0.20 | tolerability profile [5]: favorable
